From patent US20230112484A1, “COMPOSITIONS FOR CROP PROTECTION” (Agrematch Ltd., priority 2020, published 2023)

How the values were obtained:
Type in all cases: in vivo
Amaranthus palmeri [1] = experiment: Paper germination (Example 1); conditions: 0.1 mg/ml
Method: (§1) Compounds were dissolved in DMSO and then in distilled water to get 0.1 or 0.5 mg/ml solution with 0.5% DMSO.
(§2) 0.5% DMSO solution in water was used as a negative control. As a positive control, 0.1 mg/ml oxyfluorfen (Galigan) solution was used.
(§3) A towel paper was placed in each box as bedding for seeds. Each box was soaked with 6 ml of the solutions on its paper. 13 seeds were placed on the wet paper and the box was sealed and incubated under conditions provided bellow.
Amaranthus palmeri—first 2 days under dark conditions. Plants were first incubated at 25° C. for 8 hr, then at 30° C. for 16 hr. Afterwards, plants were incubated at 25° C. for 8 hr in dark, followed by 16 hr incubation at 30° C. in light.
(§4) Gemination was assessed and scored after 3-7 days. Scoring scale: 0—complete germination inhibition, 100—no effect.

Lolium rigidum [2] = experiment: Paper germination (Example 1); conditions: 0.1 mg/ml
Method: as §1, §2, §3
Lolium rigidum—first 4 days under dark conditions at 21° C. Afterwards, plants were incubated at 21° C. for 8 hr in dark, followed by 16 hr at 21° C. in light.
as §4

Lolium rigidum [3] = experiment: Soil germination (Example 1)
Method: (§5) Compounds were dissolved in DMSO and then in distilled water to get 0.01-2 mg/ml solution with 1% or 2% DMSO. 1% or 2% DMSO solution in water was used as a negative control. As a positive control, 0.1 or 0.2 mg/ml oxyfluorfen (Galigan) solution was used.
(§6) Flowerpots were filled with 30 g of soil, and 4-5 seeds were sowed in each flowerpot. Each treatment contained 3 flowerpots. Each flowerpot was sprayed with 1.5 ml of the dissolved compound. Soil was let dry for about 1 hour at room conditions, and then each flowerpot was sub-irrigated with 40 ml water and incubated under conditions provided below.
(§7) Amaranthus palmeri was incubated at 25° C. for 8 hr in dark, followed by 16 hr at 30° C. in light. Lolium rigidum was incubated at 21° C. for 8 hr in dark, followed by 16 hr at 21° C. in light. Germination was assessed and scored after 4-7 days. Scoring scale: 0—complete germination inhibition, 100—no effect.

Amaranthus palmeri [4] = experiment: Soil germination (Example 1); conditions: for Amaranthus palmeri soil germination: score 0 = complete germination inhibition, 100 = no effect
Method: as §5, §6, §7

Abutilon theophrasti [5] = experiment: Foliar experiment (Example 2); conditions: 0.5 mg/ml; score 0 = complete phytotoxic effect, 100 = no effect
Method: (§8) Compounds were dissolved in DMSO and then in distilled water to get 0.1 or 0.5 mg/ml solution with 2% DMSO. Break-Thru surfactant was added to a final concentration of 0.05%. Negative control—an aqueous solution of 2% DMSO and 0.05% Break-Thru. Positive control—2 mg/ml Glyphosate (Roundup). 1.5 ml of each compound solution were sprayed on the foliage of different plants, which were 6-16 days old at the day of the experiment. Each treatment contained 3 pots. Plants were let dry for about 15 minutes at room conditions, and then incubated at controlled growth chambers. Phytotoxicity was assessed and scored 4-10 days after applications. Scoring scale: 0—complete phytotoxic effect, 100—no effect. [table]

Amaranthus palmeri [6] = experiment: Foliar experiment (Example 2); conditions: 0.5 mg/ml; score 0 = complete phytotoxic effect, 100 = no effect; 4-10 days after application
Method: as §8

Brassica napus [7] = experiment: Foliar experiment (Example 2); conditions: 0.5 mg/ml; score 0 = complete phytotoxic effect, 100 = no effect
Method: as §8

Echinochloa colonum [8] = experiment: Foliar experiment (Example 2); conditions: 0.5 mg/ml; score 0 = complete phytotoxic effect, 100 = no effect
Method: as §8

Gossypium hirsutum [9] = experiment: Foliar experiment (Example 2); conditions: 0.5 mg/ml; score 0 = complete phytotoxic effect, 100 = no effect
Method: as §8

Lactuca sativa [10] = experiment: Foliar experiment (Example 2); conditions: 0.5 mg/ml; score 0 = complete phytotoxic effect, 100 = no effect
Method: as §8

Lolium rigidum [11] = experiment: Foliar experiment (Example 2); conditions: 0.5 mg/ml; score 0 = complete phytotoxic effect, 100 = no effect
Method: as §8

Phalaris brachystachys = experiment: Foliar experiment (Example 2); conditions: 0.5 mg/ml; score 0 = complete phytotoxic effect, 100 = no effect
Method: as §8

Setaria adhaerens [12] = experiment: Foliar experiment (Example 2); conditions: 0.5 mg/ml; score 0 = complete phytotoxic effect, 100 = no effect
Method: as §8

Sinapis alba [13] = experiment: Foliar experiment (Example 2); conditions: 0.5 mg/ml; score 0 = complete phytotoxic effect, 100 = no effect
Method: as §8

Solarium nigrum [14] = experiment: Foliar experiment (Example 2); conditions: 0.5 mg/ml; score 0 = complete phytotoxic effect, 100 = no effect
Method: as §8

Triticum vulgare [15] = experiment: Foliar experiment (Example 2); conditions: 0.5 mg/ml; score 0 = complete phytotoxic effect, 100 = no effect
Method: as §8

Zea mays [16] = experiment: Foliar experiment (Example 2); conditions: 0.5 mg/ml; score 0 = complete phytotoxic effect, 100 = no effect
Method: as §8

Abutilon theophrasti [17] = experiment: Soil germination (Example 3); conditions: 0.5 mg/ml; score 0 = complete germination inhibition, 100 = no effect; after 7 days
Method: (§9) Compounds were dissolved in DMSO and then in distilled water to get 0.1 or 0.5 mg/ml solution with 2% DMSO. 2% DMSO solution in water was used as a negative control. No positive control was used in this assay. Flowerpots were filled with 30 g of soil, each treatment contained three flowerpots. Each flowerpot was sprayed with 1.5 ml of the dissolved compound. Soil was let dry for about 1 hour at room conditions, and then each flowerpot was sub-irrigated with 40 ml water and incubated at controlled growth chambers, under conditions provided on table 6. Gemination was assessed and scored after 7 days. Scoring scale: 0—complete germination inhibition, 100—no effect. [table]

Amaranthus palmeri [18] = experiment: Soil germination (Example 3); conditions: 0.5 mg/ml; score 0 = complete germination inhibition, 100 = no effect; after 7 days
Method: as §9

Brassica napus [19] = experiment: Soil germination (Example 3); conditions: 0.5 mg/ml; score 0 = complete germination inhibition, 100 = no effect; after 7 days
Method: as §9

Echinochloa colonum [20] = experiment: Soil germination (Example 3); conditions: 0.5 mg/ml; score 0 = complete germination inhibition, 100 = no effect; after 7 days
Method: as §9

Gossypium hirsutum [21] = experiment: Soil germination (Example 3); conditions: 0.5 mg/ml; score 0 = complete germination inhibition, 100 = no effect; after 7 days
Method: as §9

Lactuca sativa [22] = experiment: Soil germination (Example 3); conditions: 0.5 mg/ml; score 0 = complete germination inhibition, 100 = no effect; after 7 days
Method: as §9

Lolium rigidum [23] = experiment: Soil germination (Example 3); conditions: 0.5 mg/ml; score 0 = complete germination inhibition, 100 = no effect; after 7 days
Method: as §9

Setaria adhaerens [24] = experiment: Soil germination (Example 3); conditions: 0.5 mg/ml; score 0 = complete germination inhibition, 100 = no effect; after 7 days
Method: as §9

Sinapis alba [25] = experiment: Soil germination (Example 3); conditions: 0.5 mg/ml; score 0 = complete germination inhibition, 100 = no effect; after 7 days
Method: as §9

Solarium nigrum [26] = experiment: Soil germination (Example 3); conditions: 0.5 mg/ml; score 0 = complete germination inhibition, 100 = no effect; after 7 days
Method: as §9

Triticum vulgare [27] = experiment: Soil germination (Example 3); conditions: 0.5 mg/ml; score 0 = complete germination inhibition, 100 = no effect; after 7 days
Method: as §9

Zea mays [28] = experiment: Soil germination (Example 3); conditions: 0.5 mg/ml; score 0 = complete germination inhibition, 100 = no effect; after 7 days
Method: as §9

a variety of plants = experiment: Foliar experiment (Example 2), overall statement; conditions: as shown in Table 5
Method: as §8

Structure (SMILES): CC(Cl)/C=C/C(=O)N(CC(C)C)c1ccc(Cl)cc1F (stereo not shown)
- paper germination reduction of Amaranthus palmeri (Amaranthus palmeri [1]): not active
- paper germination reduction of Lolium rigidum (Lolium rigidum [2]): not active
- Lolium rigidum soil germination (Lolium rigidum [3]; 1 mg/ml): unable to reduce soil germination

Structure (SMILES): CC(Cl)/C=C/C(=O)N(Cc1ccc(Cl)s1)CC(C)C (stereo not shown) [Compound 4]
- Amaranthus palmeri soil germination (Amaranthus palmeri [4]; 0.1 mg/ml): 0
- Amaranthus palmeri soil germination (Amaranthus palmeri [4]; 0.25 mg/ml): 0
- Amaranthus palmeri soil germination (Amaranthus palmeri [4]; 0.5 mg/ml): 0
- Amaranthus palmeri soil germination (Amaranthus palmeri [4]; 1 mg/ml): 0
- soil germination of Amaranthus palmeri, result in words (Amaranthus palmeri [4]; concentration not given): active
- Lolium rigidum soil germination (Lolium rigidum [3]; 0.5 mg/ml, score 0 = complete germination inhibition, 100 = no effect): 60
- Lolium rigidum soil germination (Lolium rigidum [3]; 2 mg/ml, score 0 = complete germination inhibition, 100 = no effect): 70
- soil germination of Lolium rigidum, result in words (Lolium rigidum [3]; concentration not given): active
- Herbicidal activity, foliar, Abutilon theophrasti (Abutilon theophrasti [5]): 5
- Herbicidal activity, foliar, Amaranthus palmeri (Amaranthus palmeri [6]): 0
- Herbicidal activity, foliar, Brassica napus (Brassica napus [7]): 0
- Herbicidal activity, foliar, Echinochloa colonum (Echinochloa colonum [8]): 70
- Herbicidal activity, foliar, Gossypium hirsutum (Gossypium hirsutum [9]): 60
- Herbicidal activity, foliar, Lactuca sativa (Lactuca sativa [10]): 0
- Herbicidal activity, foliar, Lolium rigidum (Lolium rigidum [11]): 10
- Herbicidal activity, foliar, Phalaris brachystachys (Phalaris brachystachys): 5
- Herbicidal activity, foliar, Setaria adhaerens (Setaria adhaerens [12]): 5
- Herbicidal activity, foliar, Sinapis alba (Sinapis alba [13]): 10
- Herbicidal activity, foliar, Solarium nigrum (Solarium nigrum [14]): 0
- Herbicidal activity, foliar, Triticum vulgare (Triticum vulgare [15]): 100
- Herbicidal activity, foliar, Zea mays (Zea mays [16]): 80
- Herbicidal activity, soil germination, Abutilon theophrasti (Abutilon theophrasti [17]): 10
- Herbicidal activity, soil germination, Amaranthus palmeri (Amaranthus palmeri [18]): 0
- Herbicidal activity, soil germination, Brassica napus (Brassica napus [19]): 10
- Herbicidal activity, soil germination, Echinochloa colonum (Echinochloa colonum [20]): 5
- Herbicidal activity, soil germination, Gossypium hirsutum (Gossypium hirsutum [21]): 90
- Herbicidal activity, soil germination, Lactuca sativa (Lactuca sativa [22]): 70
- Herbicidal activity, soil germination, Lolium rigidum (Lolium rigidum [23]): 60
- Herbicidal activity, soil germination, Setaria adhaerens (Setaria adhaerens [24]): 5
- Herbicidal activity, soil germination, Sinapis alba (Sinapis alba [25]): 30
- Herbicidal activity, soil germination, Solarium nigrum (Solarium nigrum [26]): 10
- Herbicidal activity, soil germination, Triticum vulgare (Triticum vulgare [27]): 60
- Herbicidal activity, soil germination, Zea mays (Zea mays [28]): 80
- Herbicidal activity in a variety of plants, foliar, result in words (a variety of plants): solid herbicidal activity
